Test results reported in patent US20260055061A1, “HALOPHTHALIMIDE COMPOUNDS AND METHODS OF USE AGAINST TBI, INFLAMMATORY DISORDER, AUTOIMMUNE DISORDER, NEURODEGENERATIVE DISEASE OR VIRAL INFECTION” (The United States of America, as represented by the …, priority 2022, published 2026).
pIC50: −log10 of the molar value. “Also recorded” adds a separate entry of the source. One block for each compound: values may come before it.

Experiments:
RAW 264.7 cells = assay: Cell viability of drug treated RAW 264.7 cells (CellTiter 96 AQueous One, MTS)
Method: Assessments of drug anti-TNF-α and nitric oxide generation in RAW 264.7 cells: RAW 264.7 cells were purchased from ATCC Manassas, VA, USA). The cells were grown in DMEM media (Invitrogen, DMEM, high glucose, GlutaMAX Supplement, pyruvate, #10569-010) supplemented with 10% FBS (Invitrogen, Fetal Bovine Serum, qualified, heat inactivated, #16140-071) with penicillin and streptomycin (Invitrogen, Penicillin-Streptomycin (10,000 U/mL), #15140-122) and were maintained at 37 C and 5% CO2. The cells were grown to 75%-85% confluence on 10 cm plates (corning-Fal-con, #353003) following the protocol described by ATTC. to assess for drug effects on LPS-induced markers of inflammation, namely TNF-α protein and nitrite ion levels (NO2, a stable end-product of nitric oxide metabolism) cells were seeded into 24 well (VWR, #10062-896) at a density of 200×10^3 cells per well. On each plate there was one blank well where no cells were added yet culture media in the well was treated similarly to wells with cells (n=1). The blank well media was used for background subtraction for various downstream assays. twenty-four hours after seeding the plate the seeding media was replaced with fresh media. Two hours after this the cells were exposed to a range of concentrations of drug test-compound(s) dissolved in 100% tissue culture grade dimethyl sjloxide (DMSO, SIGMA #D2650). Drug stocks were prepared in a 200 times more concentrated stock in DMSO. The final concentration of DMSO added to the cells was 0.5%. The effects of each concentration of drug were assessed in 4 wells per concentration in the 24 well plate (n=3 #-4). On each plate one set of wells were assigned as drug-vehicle control (i.e. DMSO), one test compound was assessed on one 24 well plate. […] One hour after the drugs were added the cells were challenged with lipopolysaccharide (LPS, SIGMA, serotype 055:B5) at a final concentration of 60 ng/ml. Twenty to twenty-four hours after the cells were challenged with LPS the culture media was collected and utilized for the measurement of markers of inflammation.
Cellular viability assessment of drug treated RAW 264.7 cells: RAW 264.7 cell viability was determined by use of the CellTiter 96 AQueous One Solution Cell Proliferation Assay (Promega, Madison, WI). Changes in cellular health status were determined by use of indirect measures related to the formation of a colored tetrazolium dye product that can be measured spectrophotometrically at 490 nm. An increase in absorbance at 490 nm is indicative of an increase in numbers of healthy cells; similarly a reduction in absorbance is indicative of a reduction of healthy cells. After the culture media was harvested for use in TNF-α and NO2— ion assays, the media was replaced with 0.5 mL of fresh media plus 100 μL of the cell viability reaction mixture. After a 20-30 min incubation at 37° C. with 5% CO2 the absorbance at 490 nm was obtained using an infinite M200 PRO plate reader (TECAN, USA).
Statistical analyses for RAW-derived assays: Data are expressed as a percentage change from the DMSO-vehicle control measurements. Measurements are expressed as mean±standard errors, where the n number represents the number of wells in a 24 well plate. Due to the presence of one blank control well on each plate, for some drug concentrations the n number is 3 # and not 4. Statistical comparisons were undertaken by use of a One-Way ANOVA with appropriate Bonferroni corrections for multiple comparisons, as required (GraphPad InStat Version 3.05). P values of <0.05 are considered to be of statistical significance.
RAW 264.7 cell culture: RAW 264.7 mouse cells were purchased from ATCC (Manassas, VA, USA) and grown in DMEM media supplemented with 10% FCS, penicillin 100 U/ml and streptomycin 100 μg/ml (ThermoFisher Scientific, Asheville, NC, USA). The cells were maintained at 37° C. and 5% CO2.

SALL4 = SALL4 (Homo sapiens (Human), UniProt Q9UJQ4); assay: SALL4 expression in Tera-1 cells (Western blot); format: cell-based; details: Tera-1 cells, 0.1 μM and 1 μM
Method: (§1) For Western blot analysis, total proteins were extracted using RIPA buffer (ThermoFisher Scientific, Waltham, MA) containing Halt Protease Inhibitor Cocktail (ThermoFisher Scientific). […] After incubation at 4° C. overnight, the following HRP conjugated secondary antibodies were used: (i) goat anti-rabbit IgG (ThermoFisher Scientific) for ikaros and aiolos, and (ii) goat anti-mouse IgG (ThermoFisher Scientific) for SALL4 and GAPDH. […] Antigen-antibody complexes were detected using enhanced chemiluminescence (Thermo, iBright CL1500).
Specifically, MM1.S cells were obtained from ATCC (Manassas, VA, USA), grown in RPMI media supplemented with 10% FBS, penicillin 100 U/mL, and streptomycin […], and maintained at 37° C. and 5% CO2.
as §1, with “MA, USA)” for “MA)”, “Scientific). Thereafter, the proteins were separated by gel electrophoresis and then transferred to polyvinylidene difluoride (PVDF) membranes (ThermoFisher Scientific), as described previously.” for “Scientific).”, “HRP-conjugated” for “HRP conjugated”, “Ikaros” for “ikaros”, “Aiolos,” for “aiolos,”, “(ThermoFisher Scientific,” for “(Thermo,”

CCI-induced TBI mice = assay: CCI mouse model of TBI: Iba1 microglia / GFAP astrocyte immunofluorescence (MotiQ); format: in vivo
Method: In vivo model of TBI: Mice were anesthetized with 2.5% tribromoethanol (Avertin: 250 mg/kg; Sigma, St. Louis, MO, USA) and placed in a stereotaxic frame (Kopf Instruments, Tujunga, CA, USA). A 4 mm craniotomy was performed using sterile procedures; the craniotomy point was selected midway between the lambda and bregma sutures and laterally midway between the central suture and the temporalis muscle. The skull fragment was then carefully removed without disruption of the underlying dura. Prior to injury induction, the tip of the impactor was angled and kept perpendicular to the exposed cortical surface. The mouse CCI instrument consisted of an electromagnetic impactor, Impact One (Leica Biosystems Inc., Buffalo Grove, IL, USA) that allows independent alteration of injury severity by controlling contact velocity and the level of cortical deformation. In these experiments, the contact velocity was set at 5.0 m/sec, the dwell time was set at 0.2 s and the deformation depth was set at 2 mm to produce a moderate TBI. The injury site was allowed to dry prior to suturing the wound. During surgery and recovery, the body temperature of the animals was maintained at 36-37° C. by using a heating pad. […] Mice were randomized following CCI to treatment with either of two doses of TFBP (16.25 mg/kg and 32.5 mg/kg, i.p.) or saline, and were dosed at 1 and 24 hr after the injury.
Tissue processing: Two weeks after injury, mice were deeply anesthetized with isoflurane and perfused transcardially with 30 ml phosphate buffered saline (PBS). After removal, the brain was post-fixed with 4% PFA overnight then transferred to a 30% sucrose solution in PBS. Coronal sections from the dorsal hippocampus and the posterior parietal cortex were cryosectioned at 25 μm thickness and stored in cryoprotectant solution for Giemsa staining and immunohistochemical analysis.
Immunofluorescence analysis: For GFAP and Iba1 quantification, brain samples were incubated overnight with either one of the following primary antibodies: anti-GFAP 1:2500 dilution (chicken polyclonal, Abcam, USA, cat #ab4674) or anti-Iba1 1:200 dilution (guinea pig polyclonal anti-Iba1, Synaptic System, USA, cat #234004). After PBS washing, sections were incubated for 1 hr at RT with a goat anti-chicken AlexaFluor® 488-conjugated secondary antibody IgY (H+L) 1:500 dilution (ThermoFisher, USA, cat #A-21432) for detection of GFAP, and with a Goat anti-Guinea Pig IgG (H+L) Highly Cross-Adsorbed Secondary Antibody, Alexa Fluor™ 555, ThermoFisher, USA, cat #A-21435) for detection of Iba1. Sections were washed in PBS and mounted with […]® Antifade Mounting Medium with DAPI (Vectorlabs, USA, cat #H-1200). Controls consisted of omission of the primary antibody. […] Multiple parameters were analyzed, including ramification index, spanned area, number of branches, junctions and endpoints.
In Vivo Model of TBI: TBI studies were conducted in 8-week-old male C57/BL6 mice (25-30 g; n=20), Jackson Laboratory, Bar Harbor, Maine USA. Mice were randomly assigned to four groups prior surgery, CMC+Sham, CMC+TBI, compound 30 (Low dose (LD), 14.78 mg/kg, prepared in 1% CMC in PBS)+TBI, compound 30 (High dose (HD), 29.57 mg/kg)+TBI, and evaluated the effects of compound 30 on TBI. Mice were assessed for gait function and motor coordination, balance function. Animals were subsequently evaluated for cellular changes using histological and immunohistochemistry staining. […]

[1] = molecular target: cereblon (CRBN/DDB1-CUL4A-Rbx1 complex) / BRD3 (Homo sapiens (Human), UniProt Q96SW2); assay: Cereblon/BRD3 binding assay (AlphaScreen / FRET); details: for pIC50: Example 5, FIG. 20A; for cereblon binding (in words): cereblon/BRD3 binding FRET assay
Method: After 30 min of incubation with shaking at room temperature, AlphaLISA anti-FLAG Acceptor and Alpha Glutathione Donor beads (PerkinElmer) were sequentially added and then incubated for 1 hr at room temperature for each of the added chemicals. Alpha counts were thereafter read on a Synergy Neo2 (BioTek) for the analysis. Relative activity or inhibition was calculated as the highest value, which was set to 100%, and the lowest value was set to 0% after subtraction of the “blank value” from all readings.
After 30 min of incubation with shaking at room temperature, AlphaLISA anti-FLAG Acceptor and Alpha Glutathione Donor beads (PerkinElmer) were sequentially added and then incubated for 1 h at room temperature for each of the added chemicals. Alpha counts were thereafter read on a Synergy Neo2 (BioTek) for the analysis. The relative activity of the alpha signal was calculated after subtraction of the “blank value” from all readings, and the value of the vehicle group was then set as 100%.

IL-5 = assay: LPS model of inflammation in rats: IL-5 in plasma and cortex; format: in vivo, rat; details: both doses; LPS-challenged rats

cereblon (CRBN/DDB1-CUL4A-Rbx1 complex) / BRD3, sequence (Q96SW2 whole entry): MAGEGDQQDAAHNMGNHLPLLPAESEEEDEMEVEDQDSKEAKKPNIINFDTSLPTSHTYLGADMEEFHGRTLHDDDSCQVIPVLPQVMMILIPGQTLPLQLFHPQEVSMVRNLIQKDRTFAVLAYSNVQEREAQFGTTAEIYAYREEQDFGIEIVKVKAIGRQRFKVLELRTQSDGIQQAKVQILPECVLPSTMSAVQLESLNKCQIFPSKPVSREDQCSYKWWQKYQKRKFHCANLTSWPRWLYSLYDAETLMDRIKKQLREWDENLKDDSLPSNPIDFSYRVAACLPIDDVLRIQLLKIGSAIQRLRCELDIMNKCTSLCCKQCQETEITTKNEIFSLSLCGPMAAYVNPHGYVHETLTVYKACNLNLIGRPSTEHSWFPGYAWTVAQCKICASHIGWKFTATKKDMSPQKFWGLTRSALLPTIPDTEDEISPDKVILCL
cereblon (CRBN/DDB1-CUL4A-Rbx1 complex) / BRD3, sequence (Q16531 whole entry partner): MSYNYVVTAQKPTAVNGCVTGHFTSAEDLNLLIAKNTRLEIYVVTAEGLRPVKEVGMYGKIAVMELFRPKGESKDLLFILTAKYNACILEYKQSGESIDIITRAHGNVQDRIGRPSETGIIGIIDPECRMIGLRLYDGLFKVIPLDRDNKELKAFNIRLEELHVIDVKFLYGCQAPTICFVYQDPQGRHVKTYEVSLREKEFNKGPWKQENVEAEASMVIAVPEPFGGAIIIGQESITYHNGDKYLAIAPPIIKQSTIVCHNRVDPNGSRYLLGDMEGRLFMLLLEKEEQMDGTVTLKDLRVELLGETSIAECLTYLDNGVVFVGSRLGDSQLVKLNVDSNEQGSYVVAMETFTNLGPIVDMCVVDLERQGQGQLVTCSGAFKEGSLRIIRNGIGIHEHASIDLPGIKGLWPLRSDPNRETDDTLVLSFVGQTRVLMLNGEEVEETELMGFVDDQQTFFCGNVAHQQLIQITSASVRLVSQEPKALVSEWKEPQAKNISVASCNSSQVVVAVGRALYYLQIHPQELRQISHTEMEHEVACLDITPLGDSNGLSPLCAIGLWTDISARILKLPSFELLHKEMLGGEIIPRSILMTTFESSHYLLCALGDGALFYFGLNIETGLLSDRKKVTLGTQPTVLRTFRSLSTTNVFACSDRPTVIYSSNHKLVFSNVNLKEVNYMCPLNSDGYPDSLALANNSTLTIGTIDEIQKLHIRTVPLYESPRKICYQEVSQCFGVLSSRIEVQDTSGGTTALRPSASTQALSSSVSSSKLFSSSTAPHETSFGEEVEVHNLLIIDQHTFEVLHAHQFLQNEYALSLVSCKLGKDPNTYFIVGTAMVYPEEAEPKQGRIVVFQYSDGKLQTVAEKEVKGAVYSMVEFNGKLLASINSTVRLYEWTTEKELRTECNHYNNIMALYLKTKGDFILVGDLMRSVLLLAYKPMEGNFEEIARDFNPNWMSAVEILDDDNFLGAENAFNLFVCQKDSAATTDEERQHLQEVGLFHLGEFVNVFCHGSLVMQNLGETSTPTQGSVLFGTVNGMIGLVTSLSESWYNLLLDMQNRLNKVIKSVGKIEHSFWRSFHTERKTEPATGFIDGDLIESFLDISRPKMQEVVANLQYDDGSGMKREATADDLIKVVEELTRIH
cereblon (CRBN/DDB1-CUL4A-Rbx1 complex) / BRD3, sequence (Q13619 whole entry partner): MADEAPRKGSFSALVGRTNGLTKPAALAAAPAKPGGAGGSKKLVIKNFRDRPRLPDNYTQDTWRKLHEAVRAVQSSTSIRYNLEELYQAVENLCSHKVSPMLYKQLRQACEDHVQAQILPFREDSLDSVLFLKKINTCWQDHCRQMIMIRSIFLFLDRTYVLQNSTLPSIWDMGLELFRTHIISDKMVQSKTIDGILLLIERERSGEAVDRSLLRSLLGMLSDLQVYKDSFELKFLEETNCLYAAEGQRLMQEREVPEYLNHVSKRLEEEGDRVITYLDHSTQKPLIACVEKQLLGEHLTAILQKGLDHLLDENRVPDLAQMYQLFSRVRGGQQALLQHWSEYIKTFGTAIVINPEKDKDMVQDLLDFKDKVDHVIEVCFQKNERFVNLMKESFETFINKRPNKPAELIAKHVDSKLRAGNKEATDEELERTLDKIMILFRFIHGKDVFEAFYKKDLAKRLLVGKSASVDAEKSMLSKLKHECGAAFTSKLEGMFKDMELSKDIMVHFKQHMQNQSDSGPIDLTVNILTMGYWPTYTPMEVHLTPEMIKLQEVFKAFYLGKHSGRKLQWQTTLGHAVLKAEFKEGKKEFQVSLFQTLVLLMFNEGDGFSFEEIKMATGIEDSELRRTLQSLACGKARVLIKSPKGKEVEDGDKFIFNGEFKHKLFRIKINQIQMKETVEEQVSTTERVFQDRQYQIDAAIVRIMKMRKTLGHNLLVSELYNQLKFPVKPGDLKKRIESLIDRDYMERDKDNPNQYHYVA
cereblon (CRBN/DDB1-CUL4A-Rbx1 complex) / BRD3, sequence (P62877 whole entry partner): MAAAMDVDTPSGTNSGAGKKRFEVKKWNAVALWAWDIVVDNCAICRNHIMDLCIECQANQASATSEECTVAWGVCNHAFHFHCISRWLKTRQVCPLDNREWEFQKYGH

SMILES: CC1(C)[C@@H]2CC[C@@]1(C)[C@@H](N1C(=O)c3c(F)c(F)c(F)c(F)c3C1=O)C2 [Compound 14, 4,5,6,7-Tetrafluoro-2-((1R,2S,4R)-1,7,7-trimethylbicyclo[2.2.1]heptan-2-yl) isoindoline-1,3-dione]
cell viability (RAW 264.7 cells; 1 μM, RAW 264.7 cells): ≥ 94% | Cell Viability % Δ (RAW 264.7 cells; 1 μM, RAW 264.7 cells, percentage of vehicle control value, mean ± S.E.M., n = 3): 95 ± 4% | cell viability (in words) (RAW 264.7 cells; 100-1000 nM, vs LPS+Vehicle): not significantly affected; also recorded: without impact on cell viability | SALL4 expression levels (SALL4): did not statistically affect | SALL4 expression levels (SALL4; listed as TFBP): did not lower the expression of neosubstrate SALL4 | microglial morphology (ramification index, spanned area, end points, branches, junctions), ipsilateral side (CCI-induced TBI mice; lower and higher dose, 2 weeks after CCI): substantially counteracted these CCI-induced microglial phenotypic measures | pIC50 [1]: 4.27 | cereblon binding (in words) [1]: did not bind cereblon | IL-5 expression in plasma (in words) (IL-5): reduced IL-5 expression in plasma

SALL4 expression levels (SALL4): did not statistically affect | pIC50 [1]: < 4.00 | cereblon binding (in words) [1]: did not bind cereblon
SMILES: O=C1c2c(F)c(F)c(F)c(F)c2C(=O)N1C1CC2CCC1C2 (stereo not drawn) [Compound 16, 2-Endo-(bicyclo[2.2.1]heptan-2-yl)-4,5,6,7-tetrafluoroisoindoline-1,3-dione]
SALL4 expression levels (SALL4; listed as TFNBP): did not lower the expression of neosubstrate SALL4 | IL-5 expression in plasma (in words) (IL-5): reduced IL-5 expression in plasma

SMILES: Nc1ccc(F)c2c1C(=S)N(C1CCC(=S)NC1=O)C2=O (stereo not shown) [Compound 30, 4-amino-7-fluoro-2-(2-oxo-6-thioxopiperidin-3-yl)-3-thioxoisoindolin-1-one]
cellular viability (RAW 264.7 cells; 0.6-60 μM, LPS 60 ng/mL, 24 h): > 90% | number of astrocytes (GFAP) in cortex (CCI-induced TBI mice; 14.78, 29.57 mg/kg, 2 weeks after TBI): significantly decreased the number of astrocytes | number of branches, junctions, endpoints of microglial processes (CCI-induced TBI mice; 14.78, 29.57 mg/kg, ipsilateral cortex): significantly rescue the morphological changes of microglia | number of microglia induced by TBI (CCI-induced TBI mice; cortex): subtle reduction, but not significant | microglial ramification index and spanned area (CCI-induced TBI mice; ipsilateral cortex, 2 weeks after TBI): significantly ameliorated the morphological alteration of microglia
